# Measurements published in patent publication US20060189675A1, “Crystalline form of a drug” (priority 2004, published 2006).
# Experiment: Solubility of Atrasentan Hydrochloride Crystalline Forms in 1,4-dioxane
# Format: physicochemical
# Conditions: 25° C., n=3
# Method: The solubility (in mg/mL) of Atrasentan Hydrochloride Crystalline Forms 1, 2 and 3 in 1,4-dioxane at 25° C.
row,Compound,"solubility in 1,4-dioxane [mg/mL]"
1,"CCCCN(CCCC)C(=O)CN1C[C@H](c2ccc3c(c2)OCO3)[C@@H](C(=O)O)[C@@H]1c1ccc(OC)cc1 [Form 1, (2R,3R,4S)-(+)-2-(4-methoxyphenyl)-4-(1,3-benzodioxol-5-yl)-1-(N,N-di(n-butyl)aminocarbonylmethyl)pyrrolidine-3-carboxylic acid]",35.60 ± 1.82
2,"CCCCN(CCCC)C(=O)CN1C[C@H](c2ccc3c(c2)OCO3)[C@@H](C(=O)O)[C@@H]1c1ccc(OC)cc1 [Form 2, (2R,3R,4S)-(+)-2-(4-methoxyphenyl)-4-(1,3-benzodioxol-5-yl)-1-(N,N-di(n-butyl)aminocarbonylmethyl)pyrrolidine-3-carboxylic acid]",16.66 ± 0.22
3,"CCCCN(CCCC)C(=O)CN1C[C@H](c2ccc3c(c2)OCO3)[C@@H](C(=O)O)[C@@H]1c1ccc(OC)cc1 [Form 3, (2R,3R,4S)-(+)-2-(4-methoxyphenyl)-4-(1,3-benzodioxol-5-yl)-1-(N,N-di(n-butyl)aminocarbonylmethyl)pyrrolidine-3-carboxylic acid]",16.53 ± 0.22
